Test [1] can be described thus: Binding affinity to CP645 probe-labeled Fe3+ in DMSO/MOPS buffer assessed as concentration of free Fe3+ in solution at 60 uM after 48 hrs by spectrofluorophotometric method.
A short description of test [2]: Antioxidant activity assessed as ABTS radical scavenging activity incubated for 10 mins under dark condition. It counts as functional.
The target in test [3] is T1, Amyloid-beta precursor protein (Homo sapiens, UniProt P05067). Put plainly: Inhibition of HFIP-pretreated amyloid beta (1 to 42) (unknown origin) self-induced aggregation at 20 uM incubated for 24 hrs under dark condition by thioflavin-T based fluorometric assay relative to control.
The target of test [4] is T1, Amyloid-beta precursor protein. Put plainly: Inhibition of HFIP-pretreated amyloid beta (1 to 42) (unknown origin) self-induced aggregation incubated for 24 hrs under dark condition by thioflavin-T based fluorometric assay.
Test [5] in a line: Binding affinity to Fe3+ assessed as cumulative stability constant.
The nature of test [6]: Binding affinity to Cu2+ assessed as cumulative stability constant.
The nature of test [7]: Binding affinity to Zn2+ assessed as cumulative stability constant.
Test [8] in a line: Binding affinity to Fe3+ assessed as inhibition of Fe3+-induced amyloid beta (1 to 42) aggregation by measuring Fe3+-amyloid beta (1 to 42) complex fluorescence at 50 uM incubated for 24 hrs under dark condition by thioflavin-T based fluorometric assay relative to control. Also noted: scale not given: the % may be the effect or the level left.
Test [9] in a line: Binding affinity to Cu2+ assessed as inhibition of Cu2+-induced amyloid beta (1 to 42) aggregation by measuring Cu2+-amyloid beta (1 to 42) complex fluorescence at 75 uM incubated for 24 hrs under dark condition by thioflavin-T based fluorometric assay relative to control. Also on record: scale not given: the % may be the effect or the level left.
Test [10] can be described thus: Binding affinity to Fe3+ assessed as disaggregation of Fe3+-induced amyloid beta (1 to 42) aggregation by measuring Fe3+-amyloid beta (1 to 42) complex fluorescence at 50 uM treated 24 hrs after Fe3+ addition measured after 24 hrs incubation under dark condition by thioflavin-T based fluorometric assay relative to control.
Test [11] can be described thus: Binding affinity to Cu2+ assessed as disaggregation of Cu2+-induced amyloid beta (1 to 42) aggregation by measuring Cu2+-amyloid beta (1 to 42) complex fluorescence at 75 uM treated 24 hrs after Cu2+ addition measured after 24 hrs incubation under dark condition by thioflavin-T based fluorometric assay relative to control.
Test [12] can be described thus: Binding affinity to Fe3+ assessed as disaggregation of Fe3+-induced amyloid beta (1 to 42) aggregation at 50 uM incubated for 24 hrs under dark condition by uranyl acetate staining based transmission electron microscopic method.
Test [13] can be described thus: Binding affinity to Cu2+ assessed as disaggregation of Cu2+-induced amyloid beta (1 to 42) aggregation at 75 uM incubated for 24 hrs under dark condition by uranyl acetate staining based transmission electron microscopic method.
The nature of test [14]: Binding affinity to Fe3+ assessed as inhibition of Fe3+-induced amyloid beta (1 to 42) aggregation at 50 uM incubated for 24 hrs under dark condition by uranyl acetate staining based transmission electron microscopic method.
A short description of test [15]: Binding affinity to Cu2+ assessed as inhibition of Cu2+-induced amyloid beta (1 to 42) aggregation at 75 uM incubated for 24 hrs under dark condition by uranyl acetate staining based transmission electron microscopic method.
The nature of test [16]: Binding affinity to Fe3+ in DMSO/MOPS buffer assessed as maximal absorbance intensity at iron to ligand ratio of 1:4 by UV-visible spectrophotometric method.

The source made the active and inactive calls. The calls are words filed in the database; no cut-off is given here.

T1 sequence (P05067 whole entry): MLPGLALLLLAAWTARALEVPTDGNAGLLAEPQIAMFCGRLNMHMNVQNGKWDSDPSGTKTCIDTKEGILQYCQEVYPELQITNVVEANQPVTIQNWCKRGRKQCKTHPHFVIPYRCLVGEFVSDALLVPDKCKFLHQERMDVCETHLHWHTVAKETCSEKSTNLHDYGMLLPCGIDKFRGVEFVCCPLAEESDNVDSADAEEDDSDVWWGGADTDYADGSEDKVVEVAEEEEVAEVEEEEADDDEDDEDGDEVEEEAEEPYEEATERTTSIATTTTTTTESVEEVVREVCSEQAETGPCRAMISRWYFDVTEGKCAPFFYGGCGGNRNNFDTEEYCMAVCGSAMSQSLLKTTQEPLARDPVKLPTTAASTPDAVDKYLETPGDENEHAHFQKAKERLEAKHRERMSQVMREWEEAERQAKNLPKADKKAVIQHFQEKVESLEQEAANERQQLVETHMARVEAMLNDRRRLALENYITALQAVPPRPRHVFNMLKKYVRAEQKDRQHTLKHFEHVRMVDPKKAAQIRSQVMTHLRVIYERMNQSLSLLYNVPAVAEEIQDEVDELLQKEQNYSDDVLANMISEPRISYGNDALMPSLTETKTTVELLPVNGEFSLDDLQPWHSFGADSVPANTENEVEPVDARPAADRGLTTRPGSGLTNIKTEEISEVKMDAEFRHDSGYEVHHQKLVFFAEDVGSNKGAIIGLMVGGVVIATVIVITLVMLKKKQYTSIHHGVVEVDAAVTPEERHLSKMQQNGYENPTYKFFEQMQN

Regarding `CCOc1ccc(/C=C/c2cc(=O)c(O)c[nH]2)cc1`, in test [1], the log free Fe3+ concentration was -20.1. The IC50 in test [2] worked out at 8.12 µM; in test [4], 23.4 µM. Moreover, the inhibition in test [3] turned out to be 51.5%.

`COc1cc(/C=C/c2cc(=O)c(O)c[nH]2)cc(OC)c1`: the log free Fe3+ concentration in [1] is -21.6. Further, in test [2], the IC50 was 11.4 µM. In addition, the inhibition in test [3] amounted to 35.3%.

For the molecule `O=c1cc(/C=C/c2cc(O)cc(O)c2)[nH]cc1O`, in [1], the log free Fe3+ concentration was -19.2. In addition, the IC50 in [2] was determined as 0.88 µM. In addition, the inhibition in test [3] stood at 18.2%.

Regarding `O=c1cc(/C=C/c2cccc(F)c2)[nH]cc1O`, the log free Fe3+ concentration in test [1] is -20.2. For the same molecule, the values for the IC50 in [2] and in test [4] were 6.29 µM and 19 µM, respectively. Moreover, the inhibition in [3] was 53.2%.

As for `Cn1cc(O)c(=O)cc1/C=C/c1ccccc1O`, the log free Fe3+ concentration in [1] was -20.3. In [2], the IC50 worked out at 1.83 µM. Besides, the inhibition in test [3] was 31.1%.

Turning to `Cn1cc(O)c(=O)cc1/C=C/c1ccc(O)cc1`, the log free Fe3+ concentration in test [1] is -20.1. Also, the IC50 in test [2] worked out at 1.37 µM; in test [4], 15.4 µM. Moreover, the inhibition in [3] worked out at 52.5%.

`Cn1cc(O)c(=O)cc1/C=C/c1ccc([N+](=O)[O-])cc1`: in [1], the log free Fe3+ concentration was -18.4. In test [2], the IC50 was 19.2 µM.

Turning to `CN(C)c1ccc(/C=C/c2cc(=O)c(O)cn2C)cc1`, in [1], the log free Fe3+ concentration was -19.2. Further, the IC50 in [2] is 2.52 µM. The inhibition in test [3] was found to be 44.9%.

On to `O=c1cc(/C=C/c2ccc([N+](=O)[O-])cc2)[nH]cc1O`, for which, in [1], the log free Fe3+ concentration is -19.5. Further, in test [2], the concentration for half-maximal inhibition (IC50) was found to be 4.79 µM.

On to `Cn1cc(O)c(=O)cc1/C=C/c1cc(O)cc(O)c1`, for which the log free Fe3+ concentration in [1] was -20.1. Besides, the IC50 in test [2] was found to be 1.19 µM. The inhibition in test [3] turned out to be 22.4%.

On to `O=c1cc(/C=C/c2ccc(Cl)cc2)[nH]cc1O`, for which, in test [1], the log free Fe3+ concentration was -19.5. For the same molecule, the IC50 in test [2] came out at 11.5 µM. The inhibition in test [3] worked out at 11.6%.

`COc1ccccc1/C=C/c1cc(=O)c(O)cn1C`: the log free Fe3+ concentration in test [1] is -20.6. Moreover, the IC50 in test [2] is 4.17 µM; in [4], 12.5 µM. The inhibition in test [3] came out at 56.8%.

With `Cc1c(O)c(=O)ccn1C`, the K in test [5] turned out to be 37.2; in [6], 21.7; in test [7] it was 13.5. Besides, the log free Fe3+ concentration in test [1] was -20.6.

With `Oc1ccc(/C=C/c2cc(O)cc(O)c2)cc1` [RESVERATROL], the IC50 in [2] is 0.76 µM. Also, the Activity came out at 87% in [8], 86% in [9], 58% in test [10] and 35% in test [11]. Besides, the result in test [12] and in [13] was Active.

With `Cc1c(C)c2c(c(C)c1O)CCC(C)(C(=O)O)O2` (stereo not drawn) [TROLOX], the IC50 in [2] is 3.89 µM.

For `Cn1cc(O)c(=O)cc1/C=C/c1ccccc1`, the log free Fe3+ concentration in test [1] is -19.8. The IC50 in test [2] was found to be 2.11 µM. In addition, the inhibition in [3] came to 21.6%.

Regarding `CN(C)c1ccc(/C=C/c2cc(=O)c(O)c[nH]2)cc1`, the log free Fe3+ concentration in test [1] was -20.1. Also, the IC50 in test [2] was determined as 3.41 µM; in [4], 29.2 µM. The inhibition in [3] turned out to be 49.6%.

For `COc1ccccc1/C=C/c1cc(=O)c(O)c[nH]1`, the log free Fe3+ concentration in test [1] was -20.2. Further, the values for the IC50 in test [2] and in [4] were 6.74 µM and 16.5 µM, respectively. In addition, the inhibition in test [3] was found to be 54.9%.

In the case of `Cn1cc(O)c(=O)cc1/C=C/c1cccc(F)c1`, the log free Fe3+ concentration in test [1] was -20.1. Also, the IC50 in test [2] was found to be 1.31 µM; in [4], 19.4 µM. Also, the inhibition in [3] was determined as 52.4%.

For `CCOc1ccc(/C=C/c2cc(=O)c(O)cn2C)cc1`, the log free Fe3+ concentration in [1] is -19. Besides, the IC50 came to 4.02 µM in test [2] and 8.94 µM in test [4]. Further, the inhibition in test [3] was 65.3%. The Activity in test [8] came to 64%; in [9] it was 57%; in test [10], 16%; in test [11] it was 47%. Further, the outcome in [14], in test [15], in test [12] and in [13] was Active.

On to `O=c1cc(/C=C/c2ccc(O)cc2)[nH]cc1O`, for which the log free Fe3+ concentration in test [1] is -19.6. For the same molecule, the IC50 turned out to be 1.73 µM in test [2] and 10.7 µM in test [4]. Moreover, in test [3], the inhibition stood at 58.4%. Besides, the result in test [16], in [14], in test [15], in test [12] and in [13] was Active. Also, the Activity was determined as 62% in test [8], 65% in test [9], 25% in [10] and 69% in [11].

Take `O=c1cc(/C=C/c2ccccc2O)[nH]cc1O`: the log free Fe3+ concentration in test [1] is -20.2. Besides, the IC50 in [2] came out at 2.21 µM; in test [4] it was 21.8 µM. Besides, the inhibition in test [3] came to 49.3%.

Take `Cn1cc(O)c(=O)cc1/C=C/c1ccc(Cl)cc1`: the log free Fe3+ concentration in [1] is -20.8. The IC50 in test [2] is 5.72 µM. Besides, in [3], the inhibition was determined as 14.5%.

Consider `COc1cc(/C=C/c2cc(=O)c(O)cn2C)cc(OC)c1`, for which the log free Fe3+ concentration in test [1] is -21.2. Also, in test [2], the IC50 came to 3.74 µM. In [3], the inhibition came to 28.3%.

`O=c1cc(/C=C/c2ccccc2)[nH]cc1O`: in test [1], the log free Fe3+ concentration was -21. Also, the IC50 in test [2] stood at 4.03 µM. The inhibition in test [3] is 38.2%.

A word on the IC50: it is the midpoint of a concentration-inhibition curve. One may read the inhibition as how much of the control response was suppressed.

Source of the values: ChEMBL document CHEMBL3994611, “Synthesis and biological evaluation of deferiprone-resveratrol hybrids as antioxidants, Aβ1-42 aggregation inhibitors and metal-chelating agents for Alzheimer's disease” (Eur J Med Chem, 2017).
